Assay: in vitro
Settings: human, microsomes; for CLint(mic) / Remaining (T = 60 min): 3 μM; for Remaining (T = 60 min): 1 h; for CLint scaled at 3 μM: CLint(liver)
Protocol: Microsome stability was determined in human, rat, and mouse, liver microsomes. Compound at 3 μM final concentration along with 0.5 mg/mL microsome protein and 1 mM NADPH was incubated for 0, 5, 15, 30 and 60 min. As a negative control, test compound was incubated with microsomes in the absence of NADPH. Samples were quenched with methanol and centrifuged for 25 min at 2500 rpm to precipitate proteins. Supernatants were analyzed (N=3) by LC-MS/MS. The In peak area ratio (compound peak area/internal standard peak area) was plotted against time and the gradient of the line determined the elimination rate constant [k=(−1)(slope)].
R^2 is the correlation coefficient of the linear regression for the determination of kinetic constant. T1/2 is the half life and CLint (mic) is the intrinsic clearance. CLint(liver)=CLint (mic)*mg microsomal protein/g liver weight*g liver weight/kg body weight. Liver weight/kg body weight is 20 g/kg for human.

half-life at 3 μM	CLint(mic)	Remaining (T = 60 min)	CLint scaled at 3 μM	SMILES
20.6 min	67.2 µL/min/mg	10.8%	60.5 mL/min/kg	CC(=O)Nc1ccc(-c2cnc3cc(Cl)ccc3n2)cc1 [CA77.1, N-(4-(6-chloroquinoxalin-2-yl)phenyl)acetamide]
34 min	40.8 µL/min/mg	25.9%	36.7 mL/min/kg	CC(=O)Nc1ccc(C2=Nc3ccc(Cl)cc3OC2)cc1 [CA77, reference compound]
